# Assay results as given in ChEMBL document CHEMBL1201862, “PubChem BioAssay data set” (2004).
# Activity calls are given as the source filed them. Rule as the data show it, for most assays here: actives have a measured EC50 and inactives only a lower limit.
# Columns and labels:
# [1] = molecular target: T1, High affinity choline transporter 1 (Homo sapiens, UniProt Q9GZV3); assay: CHT inhibitors, dose response, cell-based, 5-point CRC, membrane potential dye (AID 504840); assay type: functional
# T1 sequence (Q9GZV3 whole entry): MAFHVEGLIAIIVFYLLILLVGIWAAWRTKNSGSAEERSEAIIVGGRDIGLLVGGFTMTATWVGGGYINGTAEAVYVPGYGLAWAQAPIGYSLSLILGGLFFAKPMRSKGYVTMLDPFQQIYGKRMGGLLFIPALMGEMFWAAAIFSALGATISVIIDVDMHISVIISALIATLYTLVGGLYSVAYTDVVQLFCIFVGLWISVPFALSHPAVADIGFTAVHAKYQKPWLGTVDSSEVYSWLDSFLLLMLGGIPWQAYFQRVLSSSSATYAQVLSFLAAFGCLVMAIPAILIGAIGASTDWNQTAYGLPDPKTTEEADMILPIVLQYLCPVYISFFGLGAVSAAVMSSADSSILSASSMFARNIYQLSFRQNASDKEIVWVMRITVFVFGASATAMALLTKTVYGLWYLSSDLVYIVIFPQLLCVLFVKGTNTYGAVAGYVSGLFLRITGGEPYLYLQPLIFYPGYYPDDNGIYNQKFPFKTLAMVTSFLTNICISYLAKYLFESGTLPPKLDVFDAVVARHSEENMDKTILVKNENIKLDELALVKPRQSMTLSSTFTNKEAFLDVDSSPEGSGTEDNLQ
# Genome polyprotein = Genome polyprotein (dengue virus type 2, UniProt P29990); assay: Dengue-2 NS5 methyltransferase inhibitors, primary screen, biochemical, confirmation dose response (AID 588689); assay type: functional
# Genome polyprotein, sequence (P29990 2492-3391 limits assumed): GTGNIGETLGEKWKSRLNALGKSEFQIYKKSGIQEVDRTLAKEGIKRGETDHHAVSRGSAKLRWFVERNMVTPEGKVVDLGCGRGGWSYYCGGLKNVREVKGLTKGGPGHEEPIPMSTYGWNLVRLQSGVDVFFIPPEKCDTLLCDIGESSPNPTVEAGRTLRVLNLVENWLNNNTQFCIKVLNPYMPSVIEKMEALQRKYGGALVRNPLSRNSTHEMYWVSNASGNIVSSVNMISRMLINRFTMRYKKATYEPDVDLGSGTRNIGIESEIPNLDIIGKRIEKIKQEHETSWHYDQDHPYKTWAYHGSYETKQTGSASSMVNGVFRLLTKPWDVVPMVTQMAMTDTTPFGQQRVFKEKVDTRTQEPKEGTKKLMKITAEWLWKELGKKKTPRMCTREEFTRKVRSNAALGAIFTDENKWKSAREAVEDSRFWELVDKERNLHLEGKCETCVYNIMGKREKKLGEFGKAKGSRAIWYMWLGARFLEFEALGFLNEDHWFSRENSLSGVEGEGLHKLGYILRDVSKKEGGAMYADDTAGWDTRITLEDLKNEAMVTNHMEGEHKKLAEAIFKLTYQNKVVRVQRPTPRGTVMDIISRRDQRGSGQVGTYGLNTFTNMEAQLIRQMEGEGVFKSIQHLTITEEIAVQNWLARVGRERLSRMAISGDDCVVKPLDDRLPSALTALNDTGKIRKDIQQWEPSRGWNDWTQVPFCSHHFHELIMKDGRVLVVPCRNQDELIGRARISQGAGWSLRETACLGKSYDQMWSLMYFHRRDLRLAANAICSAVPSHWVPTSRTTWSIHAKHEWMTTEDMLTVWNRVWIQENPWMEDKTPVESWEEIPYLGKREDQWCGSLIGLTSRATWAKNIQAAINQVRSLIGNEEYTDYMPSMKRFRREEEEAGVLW
# [2] = Luminescence Cell-Based Dose Confirmation HTS to Identify Inhibitors of Platelet Dense Granule Release. [Related pubchem assays: 1663 (Primary HTS), 1678 (Summary of Project)]; assay type: functional
# [3] = molecular target: Luciferin 4-monooxygenase (Photinus pyralis, UniProt P08659); assay: firefly luciferase enzyme inhibitors, dose response, biochemical, luminescence (AID 1891)
# Luciferin 4-monooxygenase, sequence (P08659 whole entry): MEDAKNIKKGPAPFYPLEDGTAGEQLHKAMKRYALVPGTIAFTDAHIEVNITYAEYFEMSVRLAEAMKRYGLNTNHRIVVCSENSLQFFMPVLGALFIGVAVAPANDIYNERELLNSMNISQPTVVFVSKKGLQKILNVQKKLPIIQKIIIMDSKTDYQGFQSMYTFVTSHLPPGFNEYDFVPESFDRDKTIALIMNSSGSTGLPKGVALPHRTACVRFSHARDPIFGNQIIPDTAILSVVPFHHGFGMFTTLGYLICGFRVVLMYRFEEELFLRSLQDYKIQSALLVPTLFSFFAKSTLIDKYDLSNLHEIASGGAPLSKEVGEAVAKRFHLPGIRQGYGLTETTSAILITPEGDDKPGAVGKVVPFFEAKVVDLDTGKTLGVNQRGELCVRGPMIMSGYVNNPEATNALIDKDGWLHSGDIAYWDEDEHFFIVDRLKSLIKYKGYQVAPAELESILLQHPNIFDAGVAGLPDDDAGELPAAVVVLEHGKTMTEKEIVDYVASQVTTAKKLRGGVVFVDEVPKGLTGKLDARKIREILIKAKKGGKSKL
# [4] = molecular target: FAD-linked sulfhydryl oxidase ALR (Homo sapiens, UniProt P55789); assay: inhibitors of human ALR sulfhydryl oxidase, dose response, biochemical, H2O2 detection, luminescence, cherry-pick (AID 493248)
# FAD-linked sulfhydryl oxidase ALR, sequence (P55789 whole entry): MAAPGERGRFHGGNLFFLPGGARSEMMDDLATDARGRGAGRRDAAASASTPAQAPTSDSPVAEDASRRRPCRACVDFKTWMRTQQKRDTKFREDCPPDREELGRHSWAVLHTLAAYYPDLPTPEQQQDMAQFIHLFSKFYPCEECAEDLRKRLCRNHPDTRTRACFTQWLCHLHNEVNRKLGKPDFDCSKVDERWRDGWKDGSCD
# Streptokinase A = molecular target: T2, Streptokinase A (Streptococcus pyogenes serotype M1, UniProt P10520); assay: S. pyogenes streptokinase expression inhibitors, potency, dose response, plasminogen activation absorbance, OD405 (AID 1914); assay type: functional, Streptococcus pyogenes M1 GAS;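 also: secreted streptokinase activity via plasminogen activation per viability signal from cell pellet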
# T2 sequence (P10520 whole entry): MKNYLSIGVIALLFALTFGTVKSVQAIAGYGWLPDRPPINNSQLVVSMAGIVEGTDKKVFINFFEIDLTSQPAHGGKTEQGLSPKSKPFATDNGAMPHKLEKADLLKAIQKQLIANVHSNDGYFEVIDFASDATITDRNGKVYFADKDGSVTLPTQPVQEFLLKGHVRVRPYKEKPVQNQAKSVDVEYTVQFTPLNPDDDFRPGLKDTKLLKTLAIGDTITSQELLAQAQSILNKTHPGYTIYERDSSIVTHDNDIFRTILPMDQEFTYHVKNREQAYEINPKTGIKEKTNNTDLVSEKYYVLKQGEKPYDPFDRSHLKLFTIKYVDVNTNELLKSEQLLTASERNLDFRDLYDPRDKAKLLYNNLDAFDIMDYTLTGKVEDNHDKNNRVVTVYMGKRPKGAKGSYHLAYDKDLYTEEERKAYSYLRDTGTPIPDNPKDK
# [5] = tested on: Streptococcus sp. 'group A'; assay: growth inhibition of control SK(-) GAS strain, dose response, counter-screen for streptokinase expression inhibitor project, luminescence, kanamycin, BacTiterGlo, confirmation (AID 1900); assay type: functional, organism-based
# Streptococcus = assay: Group A Streptococcus viability loss, dose response, counter-screen for streptokinase expression inhibitor project, luminescence, BacTiterGlo (AID 1915); assay type: functional, organism-based;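 also: potency for reduction of bacterial viability or growth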
# [6] = molecular target: T3, RNA-binding protein pos-1 (Caenorhabditis elegans, UniProt G5EF15); assay: inhibitors of POS-1/mex-3 RNA binding, dose response, biochemical, fluorescence polarization (AID 1964);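 also: purified POS-1 fused to maltose binding protein made in E. coli; potency of compounds blocking POS-1 binding to fluorescent RNA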
# T3 sequence (G5EF15 whole entry): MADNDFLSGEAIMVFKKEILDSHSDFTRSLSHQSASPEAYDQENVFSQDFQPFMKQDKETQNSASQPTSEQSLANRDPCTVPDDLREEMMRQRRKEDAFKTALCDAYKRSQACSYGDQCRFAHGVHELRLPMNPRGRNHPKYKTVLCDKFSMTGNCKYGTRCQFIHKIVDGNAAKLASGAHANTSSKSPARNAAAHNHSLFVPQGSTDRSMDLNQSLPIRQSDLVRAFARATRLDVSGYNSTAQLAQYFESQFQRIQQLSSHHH
# [7] = molecular target: T4, Zinc finger protein mex-5 (Caenorhabditis elegans, UniProt Q9XUB2); assay: MEX-5/TCR-2 RNA interaction inhibitors, dose response, biochemical, C. elegans, fluorescence polarization (AID 1960)
# T4 sequence (Q9XUB2 whole entry): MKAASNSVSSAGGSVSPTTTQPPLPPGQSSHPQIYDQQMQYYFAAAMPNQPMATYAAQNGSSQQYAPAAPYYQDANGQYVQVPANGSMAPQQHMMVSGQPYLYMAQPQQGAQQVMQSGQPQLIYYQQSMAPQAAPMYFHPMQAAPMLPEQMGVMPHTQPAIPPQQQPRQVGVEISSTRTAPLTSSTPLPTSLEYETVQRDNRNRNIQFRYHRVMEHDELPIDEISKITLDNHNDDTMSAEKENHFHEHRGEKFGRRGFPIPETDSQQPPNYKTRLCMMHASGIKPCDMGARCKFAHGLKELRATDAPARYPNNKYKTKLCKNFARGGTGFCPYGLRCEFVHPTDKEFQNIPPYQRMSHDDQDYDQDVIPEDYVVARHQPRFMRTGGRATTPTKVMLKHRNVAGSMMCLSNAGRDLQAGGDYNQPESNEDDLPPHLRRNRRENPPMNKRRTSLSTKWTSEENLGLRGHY
# [8] = inhibitors of SNCA 5'UTR-driven reporter translation, confirmation, H4 neuroglioma cells, luminescence (AID 1988); assay type: functional, cell-based
# [9] = Luminescence Cell-Based Dose Response HTS to Identify Inhibitors of 5'UTR Stem-Loop Driven Prion Protein mRNA Translation in H4 Neuroglioblastoma Cells. [Related pubchem assays: 1827 (Project Summary), 1813 (Primary HTS)]; assay type: functional
# [10] = inhibitors of firefly luciferase expression or activity, dose response, H4 neuroglioma cells, luminescence (AID 1990); assay type: functional, cell-based
# Protein skinhead-1 = molecular target: T5, Protein skinhead-1 (Caenorhabditis elegans, UniProt P34707); assay type: functional
# T5 sequence (P34707 whole entry): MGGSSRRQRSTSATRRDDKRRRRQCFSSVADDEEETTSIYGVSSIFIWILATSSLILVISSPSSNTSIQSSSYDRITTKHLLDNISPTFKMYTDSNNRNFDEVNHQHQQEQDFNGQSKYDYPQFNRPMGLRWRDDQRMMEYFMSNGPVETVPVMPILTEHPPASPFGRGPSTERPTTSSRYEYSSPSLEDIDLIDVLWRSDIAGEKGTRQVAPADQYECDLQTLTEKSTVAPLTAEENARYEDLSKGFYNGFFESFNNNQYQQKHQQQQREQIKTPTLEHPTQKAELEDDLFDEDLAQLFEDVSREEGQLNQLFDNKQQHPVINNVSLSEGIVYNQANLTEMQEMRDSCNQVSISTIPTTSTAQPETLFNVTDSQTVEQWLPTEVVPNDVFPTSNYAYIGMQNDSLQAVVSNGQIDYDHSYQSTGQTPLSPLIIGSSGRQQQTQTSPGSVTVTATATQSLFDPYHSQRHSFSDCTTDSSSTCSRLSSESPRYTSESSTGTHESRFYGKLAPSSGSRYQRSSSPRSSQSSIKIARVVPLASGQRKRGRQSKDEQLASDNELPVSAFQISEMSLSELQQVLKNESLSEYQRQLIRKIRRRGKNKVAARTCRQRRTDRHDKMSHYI
# BJ [11] = assay: cytotoxicity toward BJ-TERT fibroblasts, dose response, cell-based, RAS-independent, luminescence (AID 1933); assay type: functional; conditions: Homo sapiens
# BJ [12] = assay: cells; assay type: functional, cell-based; conditions: Homo sapiens
# BJ [13] = assay: cytotoxicity toward BJ-TERT-LT-ST fibroblasts, dose response, cell-based, RAS-independent, luminescence (AID 1935); assay type: functional; conditions: Homo sapiens;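 also: BJ fibroblasts immortalized with TERT plus LT and ST oncogenes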
# [14] = cytotoxicity toward DRD oncogenic fibroblasts, dose response, cell-based, non-viral oncogenic, luminescence (AID 1934); assay type: functional; conditions: Homo sapiens
# H9c2 = assay: cells; assay type: functional, cell-based; conditions: Rattus norvegicus, H9c2, Myocardium;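 also: confirmatory concentration-response retest of ultra-high-throughput screening hits for modulation of myocardial damage; cell death induced by hydrogen peroxide oxidative stress; compound pretreatment for 60 min then peroxide exposure for 2 h; potency is for protecting the cells against peroxide damage rather than for killing them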
# Cytochrome P450 2D6 = Cytochrome P450 2D6 (Homo sapiens, UniProt P10635);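 also: CYP2D6 member of a cytochrome P450 panel assay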
# Cytochrome P450 2D6, sequence (P10635 whole entry): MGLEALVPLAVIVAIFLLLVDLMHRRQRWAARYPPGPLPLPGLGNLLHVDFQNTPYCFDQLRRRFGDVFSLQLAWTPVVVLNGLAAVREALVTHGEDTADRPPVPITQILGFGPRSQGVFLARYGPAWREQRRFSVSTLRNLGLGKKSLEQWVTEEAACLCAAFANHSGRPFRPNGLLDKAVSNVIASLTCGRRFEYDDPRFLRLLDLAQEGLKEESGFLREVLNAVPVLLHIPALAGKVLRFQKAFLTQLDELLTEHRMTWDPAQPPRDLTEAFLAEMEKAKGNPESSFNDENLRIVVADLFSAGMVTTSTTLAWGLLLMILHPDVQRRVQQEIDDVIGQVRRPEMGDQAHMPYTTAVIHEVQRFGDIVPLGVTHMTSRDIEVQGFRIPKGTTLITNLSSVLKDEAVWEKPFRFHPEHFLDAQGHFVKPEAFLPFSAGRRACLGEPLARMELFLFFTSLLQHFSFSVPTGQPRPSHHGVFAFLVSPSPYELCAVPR
compound,measurement,setting,value
COc1ccc(C(=O)N(C)C2CCCc3ccccc32)cc1OC1CCN(C(C)C)CC1 (configuration not stated),IC50,[1],12.6 µM (active)
CCCc1cc(C(=O)NN=C(S)NC(C)c2ccccc2)cs1 (configuration not stated),IC50,[1],12.6 µM (active)
COc1ccc(/C=C2/C(=O)NC(=O)N(c3ccccc3)C2=O)cc1CN1C(=O)c2ccccc2C1=O,IC50,Genome polyprotein,73.9 µM (active)
CCOC(=O)N1CCN(C(=O)CCCN2C(=O)CSc3nc(C)cc(C)c32)CC1,EC50,[2],> 112 µM (not active)
same,EC50,[3],> 112 µM (not active)
O=C(CCNS(=O)(=O)c1ccccc1C(F)(F)F)N1CCN(c2ccccc2O)CC1,AC50,[4],5.51 µM (active)
CCCCCc1nc2sc3c(c2c(=O)n1N)CCC3,EC50,[2],> 112 µM (not active)
same,EC50,[3],> 112 µM (not active)
Cc1cccc(-c2cnn(-c3cccc([N+](=O)[O-])c3)c2N)c1,AC50,[4],0.287 µM (active)
CC1(C)c2[nH]c3ccccc3c2C[C@@H]2C(=O)N(Cc3ccccc3)C(=O)N21,IC50,[1],12.9 µM (active)
CSC1=NSC2=NC(=O)/C(=C\c3c[nH]c4ccccc34)C(=N)N12,EC50,Streptokinase A,> 150 µM (not active)
same,EC50,[5],1.95 µM (active)
same,IC50,Genome polyprotein,> 100 µM (active)
same,EC50,Streptococcus,> 150 µM (not active)
same,EC50,[6],> 300 µM (inconclusive)
same,EC50,[7],17.9 µM (inconclusive)
Cc1csc(NC(=O)c2ccco2)n1,EC50,[2],20.1 µM (active)
same,EC50,[3],> 112 µM (not active)
Cc1cccc(C(=O)Nc2nnc(-c3ccncc3)o2)c1,AC50,[4],2.35 µM (active)
c1ccc2nc(-c3ccc(N4CCOCC4)cc3)ccc2c1,EC50,[8],0.413 µM (inconclusive)
same,EC50,[2],3.7 µM (active)
same,EC50,[9],0.757 µM (active)
same,EC50,[3],0.793 µM (active)
same,EC50,[10],4.01 µM (inconclusive)
CC(=O)Nc1ccc(C(=O)N(C)c2ccccc2)cc1,EC50,[2],> 112 µM (not active)
same,EC50,[3],> 112 µM (not active)
Cc1ccc(C(=O)Nc2ncc([N+](=O)[O-])s2)cc1,IC50,[1],10.5 µM (active)
same,IC50,Protein skinhead-1,> 100 µM (inactive)
COc1cc(/C=N/c2cccc(C)c2)c(O)c([N+](=O)[O-])c1,IC50,[1],13.2 µM (active)
COc1ccc(C(=O)N2CCCCCC2)cc1OC1CCN(C(C)C)CC1,IC50,[1],13.9 µM (active)
Nc1nn(-c2ccccc2)c(N)c1N=Nc1cccc(F)c1,EC50,BJ [11],3.92 µM (active)
same,EC50,BJ [12],124 µM (active)
same,EC50,BJ [13],36.7 µM (inconclusive)
same,EC50,[14],1.94 µM (active)
CCN(CC)S(=O)(=O)c1cccc(-c2csc(C)n2)c1,AC50,[4],4.41 µM (active)
CCOc1ccc(/C=C/c2nc(O)nc(O)c2[N+](=O)[O-])cc1,IC50,Genome polyprotein,45.9 µM (active)
O=c1cc(COc2ncnc3c(Cl)cc(Cl)cc23)nc2sccn12,EC50,[2],> 112 µM (not active)
same,EC50,[3],> 112 µM (not active)
same,IC50,H9c2,> 79 µM (inactive)
COc1cc(C(=O)NCC(=O)N2CCN(S(=O)(=O)c3cc(C)ccc3C)CC2)cc(OC)c1OC,EC50,BJ [11],13.4 µM (active)
same,EC50,BJ [12],31.8 µM (active)
same,EC50,BJ [13],16.3 µM (active)
same,EC50,[14],14.5 µM (active)
COc1ccc(-c2cc(-c3ccc(N)cc3)nc(N)c2C#N)cc1OC,AC50,[4],0.794 µM (active)
Cc1ccc(N2NC(=O)/C(=C/c3ccc(-c4ccc(Cl)c(C(=O)O)c4)o3)C2=O)cc1C,IC50,Genome polyprotein,79.1 µM (active)
CCN(CC)c1ccc2c(c1)OC(N)=C(C#N)C2c1cccnc1 (configuration not stated),EC50,BJ [11],0.368 µM (inconclusive)
same,EC50,BJ [12],0.341 µM (inconclusive)
same,EC50,BJ [13],0.396 µM (inconclusive)
same,EC50,[14],0.347 µM (active)
same,AC50,Cytochrome P450 2D6,15.8 µM (inconclusive)
CCOC(=O)Cc1sc(N)nc1C,EC50,[2],> 112 µM (not active)
same,EC50,[3],> 112 µM (not active)
O=C(O)CCc1ccc(-c2ccc(Cl)cc2)o1,AC50,[4],2.22 µM (active)
COc1ccc(S(=O)(=O)N2CCN=C2SCc2cccnc2)cc1,AC50,[4],0.243 µM (active)
COc1ccccc1C(=O)N1CCN=C1SCc1cccnc1,AC50,[4],0.009 µM (active)
CCOc1cccc2cc(C(=O)NCc3cccnc3)c(=O)oc12,EC50,[2],> 112 µM (not active)
same,EC50,[3],> 112 µM (not active)
CCOc1ccc(S(=O)(=O)NCCC(=O)N2CCCN(C)CC2)cc1,EC50,[2],> 112 µM (not active)
same,EC50,[3],> 112 µM (not active)
CCc1cc2c(N3CCN(c4nnc(CC)s4)CC3)ncnc2s1,IC50,[1],3.63 µM (active)
COc1ccc(/C=N/Nc2nccnc2Cl)c(OC)c1,EC50,[2],2.65 µM (active)
same,EC50,[3],6.55 µM (active)
